Source: patent US5342974A, “Halogenated anthraquinone and their use as near infrared rays absorbing optical filters” (Mitsui Toatsu Chemicals, Incorporated, priority 1987, dated 1994)

Test: Transmittance at 860 nm of the product dissolved in chloroform
Assay type: physicochemical
Settings: 860 nm; chloroform; product/chloroform=4 mg/100 ml
Description: In order to use colorants consisted in such optical filters, fairly high purity is required. However conventional near infrared rays absorbing colorants have low purity and inadequate absorption characteristics and thus can scarecely be used. Particularly in case of a 1,4,5,8-tetraanilidoanthraquinone, the allowable limit of its transmittance in the vicinity of 860 nm is at a level of about 95 to about 96% (a concentration of the dissolved colorant at the time of the transmittance measurement is 4 mg per 100 ml of chloroform). If its transmittance is below this level, the transmission of semiconductor laser beams is hindered noticeably, and therefore it is difficult to use such a colorant as a near infrared rays absorbing filter for measuring equipment and the like where particularly high accuracy is required.
(§1) In general, laser beams used for the near infrared rays absorbing filters have a wavelength of 830 nm or more, but the wavelength depends upon use applications. In the examples described following, the most usual wavelength of about 860 nm was used to measure the transmittance of compounds represented by the formula (I), and the estimation was made by comparing absorption wave shapes.
A mixture of 10.87 parts of 99%-purity 1,4,5,8-tetrachloroanthraquinone recrystallized from chlorobenzene, 27.2 parts of p-toluidine, 31.3 parts of p-chloroaniline, 13.4 parts of potasssium acetate, 1.24 parts of copper sulfate and 3.41 parts of benzyl alcohol was heated 130° C. under a nitrogen gas flow and the reaction mixture was then maintained at this temperature for 6.5 hours. Afterward, the reaction mixture was cooled to 70° C. and was then poured into 217 parts of ethanol, followed by filtration, ethanol washing, water washing and drying. The resultant crude product was then subjected to recrystallization from pyridine, thereby obtaining 14.2 parts of desired 1-(p-chloroanilido)-4,5,8-tris(p-methylanilido)anthraquinone (yield=70%) in high purity. By the use of a high-speed liquid chromatography (made by Shimadzu Seisakusho Ltd., SHIM-PACK CLC-ODS column, acetonitrile development, detection at 254 nm), it was confirmed that the purity of the product was 99.5%. In addition, the transmittance at 860 nm of the product in chloroform was 99% (product/chloroform=4 mg/100 ml).
The same procedure as in Example 1 or 3 was repeated to synthesize the compounds shown in Table 1, and yield, purity and transmittance at 860 nm of each product were then measured. The respective substituents A, B, C and D in the table correspond to those of formula (I).
*The transmittance was measured at 860 nm in chloroform.

`Cc1ccc(Nc2ccc(Nc3ccc(C)cc3)c3c2C(=O)c2c(Nc4ccc(C)cc4)ccc(Nc4ccc(Cl)cc4)c2C3=O)cc1` [Example 1, 1-(p-chloroanilido)-4,5,8-tris(p-methylanilido)anthraquinone] and `Cc1ccc(Nc2ccc(Nc3ccc(C)cc3)c3c2C(=O)c2c(Nc4ccc(C)cc4)ccc(Nc4ccc(C)cc4)c2C3=O)cc1` [Comparative Example 1, 1,4,5,8-tetrakis(p-methylanilido)anthraquinone, reference compound] are the same in “transmittance at 860 nm of the product in chloroform” value: 99% for the first, 99% for the second.

First: CCCCc1ccc(Nc2ccc(Nc3ccc(Cl)cc3)c3c2C(=O)c2c(Nc4ccc(CCCC)cc4)ccc(Nc4ccc(CCCC)cc4)c2C3=O)cc1 [Example 2, 1-(p-chloroanilido)-4,5,8-tris(p-n-butylanilido)anthraquinone]
Second: Cc1ccc(Nc2ccc(Nc3ccc(C)cc3)c3c2C(=O)c2c(Nc4ccc(Cl)cc4)ccc(Nc4ccc(Cl)cc4)c2C3=O)cc1 [Example 3, 1,4-bis(p-chloroanilido)-5,8-bis(p-methylanilido)anthraquinone]
The “transmittance at 860 nm of the product in chloroform” value of the first is lower: 99.2% for the first, 99.6% for the second.

Same assay, conditions: measured at 860 nm in chloroform (Table 1)

Going from `O=C1c2c(Nc3ccccc3)ccc(Nc3ccccc3)c2C(=O)c2c(Nc3ccc(Cl)cc3)ccc(Nc3ccccc3)c21` [Example 4] to `O=C1c2c(Nc3ccc(O)cc3)ccc(Nc3ccc(O)cc3)c2C(=O)c2c(Nc3ccc(Cl)cc3)ccc(Nc3ccc(Cl)cc3)c21` [Example 8], the “Transmittance*” value falls from 98.8% to 98.5%.

Going from `Cc1ccc(Nc2ccc(Nc3ccc(C)cc3)c3c2C(=O)c2c(Nc4ccc(C)cc4)ccc(Nc4cccc(Br)c4)c2C3=O)cc1` [Example 11] to `Cc1ccc(Nc2ccc(Nc3ccc(C)cc3)c3c2C(=O)c2c(Nc4ccc(C)cc4)ccc(Nc4ccc(F)cc4)c2C3=O)cc1` [Example 10], the “Transmittance*” value rises from 98.2% to 99.2%.

Going from `Cc1ccc(Nc2ccc(Nc3ccc(Cl)cc3)c3c2C(=O)c2c(Nc4ccc(C5CCCCC5)cc4)ccc(Nc4ccc(C)cc4)c2C3=O)cc1` [Example 9] to `Cc1ccc(Nc2ccc(Nc3ccc(C4CCCCC4)cc3)c3c2C(=O)c2c(Nc4ccc(Br)cc4)ccc(Nc4ccc(C5CCCCC5)cc4)c2C3=O)cc1` [Example 13], the “Transmittance*” value falls from 99.5% to 99.1%.

First: COc1ccc(Nc2ccc(Nc3ccc(OC)cc3)c3c2C(=O)c2c(Nc4ccc(OC)cc4)ccc(Nc4cccc(F)c4)c2C3=O)cc1 [Example 12]
Second: COc1ccc(Nc2ccc(Nc3ccc(Cl)cc3)c3c2C(=O)c2c(Nc4ccc(OC)cc4)ccc(Nc4ccc(OC)cc4)c2C3=O)cc1 [Example 5]
The “Transmittance*” value of the first is higher: 99.6% for the first, 98.9% for the second.

Compared with `O=C1c2c(Nc3ccc(Cl)cc3)ccc(Nc3ccc(Cl)cc3)c2C(=O)c2c(Nc3ccc(Cl)cc3)ccc(Nc3ccc(Cl)cc3)c21` [Example 6], `O=C1c2c(Nc3ccc(Cl)cc3)ccc(Nc3ccc(C4CCCCC4)cc3)c2C(=O)c2c(Nc3ccc(C4CCCCC4)cc3)ccc(Nc3ccc(C4CCCCC4)cc3)c21` [Example 7] is lower in “Transmittance*” value: 100% for the first, 99.2% for the second.

Test: Transmittance-versus-wavelength curve in chloroform (FIG. 1), judged as a near infrared filter
Assay type: physicochemical
Settings: curve 3 of FIG. 1
Description: FIG. 1 is a graph illustrating transmittance to wavelength of a solution in chloroform of the compounds of Examples 1 and 3 and Comparative Example 1, in which carves 1, 2 and 3 are the absorption curves of the compounds of Example 1, Example 3 and Comparative Example i respectively.
In the anthraquinone of present invention, at least one of four anilido benzene rings is substituted by a halogen atom such as chlorine, fluorine and bromine, which preferably is in the p-position. The anthraquinone bearing a halogen atom realizes a wave shape of the light absorption of the absorption curves of these compounds render them very suitable for near infrared rays absorbing filters. That is, the anthraquinone bearing a halogen atom can mostly absorb the light in the wavelength range of 700 to 800 nm and realize the transmittance curve which is steeper slope in vicinity of 800 nm than one of other anthraquinone bearing no halogen atom.
as §1, with “shapes. […]” for “shapes.”

For `Cc1ccc(Nc2ccc(Nc3ccc(C)cc3)c3c2C(=O)c2c(Nc4ccc(C)cc4)ccc(Nc4ccc(C)cc4)c2C3=O)cc1` [Comparative Example 1, 1,4,5,8-tetrakis(p-methylanilido)anthraquinone, reference compound], the “transmission of the product in a 800-830 wavelength range” value was “poor”.
